Measured values published in patent US20040171613A1, “Therapeutic agent for non-immediate type allergic diseases” (JAPAN TOBACCO INC., priority 2001, published 2004).

Columns and labels:
[1] = system: DNFB-induced allergic dermatitis; assay: murine DNFB-induced allergic dermatitis model; format: in vivo, mouse
Procedure: The model is produced by repeating antigen sensitization and induction in mouse to induce contact dermatitis that involves increase of IgE antibody titer, i.e., inflammation similar to atopic dermatitis (J. Allergy Clin. Immunol., 100 (6Pt2), 39-44, December 1997).
Furthermore, by dilution, 0.1 mg/mL and 0.01 mg/mL suspensions were prepared. In addition, as positive controls, 0.5 mg/mL, 0.2 mg/mL and 0.1 mg/mL solutions of prednisolone (Sigma) were similarly prepared.
During the period from the next day of the third antigen application to the next day of the fifth antigen application, 10 mL/kg of the above-described test compound was administered once a day 15 times in total.
The difference of thickness was used as an index of swelling. FIGS. 1 and 2 show the results of the measurement at the fourth and fifth antigen applications, together with the results of the positive controls.
24 hours after the fifth antigen application, the spleen was harvested from the mouse exsanguinated under anesthesia with ether. The wet weight of the spleen was measured.

antigen-induced asthma = assay: antigen-induced immediate type asthma, late-type asthma and airway hypersensitivity in guinea pigs; format: in vivo, guinea pig; details: oral, compound A 10, 30, 100 mg/kg, positive controls 30 mg/kg
Procedure: The test compound was further diluted to 20, 6 and 2 mg/mL on needed basis. As positive controls, 6 mg/mL pranlukast hydrate (extracted from Onon™ (Ono Pharmaceutical Co., Ltd.)) and 6 mg/mL prednisolone (Sigma) were similarly prepared.
Sensitization: Using an ultrasonic nebulizer (NE-U12; OMRON), a 6-weeks old male Hartley guinea pig (Kudo, Co., Ltd.) was continuously inhaled with 1% OVA (ovalbumin; Sigma)-containing physiological saline for 10 minutes per day for 8 consecutive days.
Antigen challenge: One week after the last sensitization, 2% OVA was similarly inhaled for 5 minutes. 24 hours before and one hour after the OVA challenge, metyrapone-containing physiological saline (Aldrich, 10 mg/mL) was administered intravenously and 30 minutes before the OVA induction, pyrilamine-containing physiological saline (Sigma, 10 mg/kg) was administered intraperitoneally.
During the 8 days of sensitization, the test compound was given one hour before the sensitization. On the day of the antigen challenge, the test compound was given one hour before the challenge. As solvent controls, the vehicle was similarly administered in accordance with OVA induction and physiological saline induction.
As positive controls, pranlukast hydrate was administered one hour before the challenge, while prednisolone was administered 16 hours and 2 hours before the challenge. The animals were fasted 16 to 18 hours before the oral administration.
Using total respiratory function analysis system (Pulmos-I, M.I.P.S. Company), the pre value was measured. Subsequently, specific airway resistance (hereinafter referred to as sRaw) per 100 breathes was measured one minute and 2, 4, 5, 6, 7 and 8 hours after the OVA challenge, and further once between 22 to 26 hours after the challenge, respectively. The average was used as sRaw at each measured time point. The increment ratio of sRaw was calculated by the following formula.
Increment ratio of sRaw (%)=[(sRaw at each measured time point −sRaw before the challenge)/(sRaw before the challenge)]×100
Twenty-two to 26 hours after the antigen challenge, each of 0.0625, 0.125, 0.25, 0.5, 1 and 2 mg/mL solutions of physiological saline and acetylcholine (hereinafter referred to as ACh) were sequentially inhaled for one minute, until the sRaw was 2-fold or more to the baseline sRaw (sRaw after inhalation of physiological saline). Based on the ACh concentration and the concentration-resistance curve of sRaw, the ACh concentration required for the sRaw to achieve 100% increase from the baseline sRaw, i.e., PC100ACh was determined.

[2] = system: 2-AG-E-induced ear swelling; assay: effect of compound A on 2-AG-E-induced ear swelling; format: in vivo, mouse
Procedure: Therefore, 2-arachidonoylglycerol ether (2-AG-E), the stable form of an endogenous ligand candidate 2-arachidonoylglycerol, and a specific CB2 agonist HU-308 were examined whether they directly induce ear swelling and compared to the ear swelling induced by arachidonic acid (AA).
Synthetically produced 2-AG-E and HU-308 were prepared with acetone to 1 or 10% (w/v) and 10% (w/v), respectively, and AA (Sigma) was prepared with acetone to 1.25% (w/v), on needed basis. 10 μL each of these substances was applied on each side of the left ear.
One hour later, 10 μL each of 10% (w/v) 2-AG-E was applied on each side of the left ear.

[3] = system: spontaneous scratching reaction; assay: spontaneous scratching reaction of NC mouse; format: in vivo; details: NC/Jic mice; oral once a day for 3 weeks; vs solvent control
Source text: Currently, NC mouse is used as an animal model of atopic dermatitis. No dermatitis or scratching action is observed when the mouse is kept in an environment under the control of atmospheric microorganisms (in SPF environment). However, when the mouse is kept in a conventional environment, scratching action together with the onset of dermatitis can be observed from about week 8 and the symptom progresses into chronic symptom (J. Dermatol. Sci., 25, 20-28, 2001).
Preparation of solvent: MC was dissolved in tap water to prepare an aqueous 0.5% (w/v) MC solution.
As positive controls, betamethasone valerate (Sigma) and tacrolimus hydrate (extracted from Prograf (Fujisawa Pharmaceutical Co., Ltd.)) were similarly prepared to 1 mg/mL. Betamethasone valerate is one of the adrenocorticosteroids that is considered to be effective for the treatment of atopic dermatitis. Tacrolimus hydrate is a therapeutic agent of atopic dermatitis which is known as an immunosuppressor as described above.
The mice (A) were taken away from the cage and the NC/Jic mice were used at the age of 16 weeks.
Breeding conditions: The mice were fed with solid feed CA-1 (CLEA JAPAN INC.) ad libitum and tap water as drinking water ad libitum, and kept at a temperature of 22±2° C. and a humidity of 55±10% under lighting from 8:00 a.m. to 20:00 p.m.
From 10 days before the start of the experiment, the number of scratching behavior with hind legs of the mice was visually counted (for 20 minutes; once daily) over 2 days or 3 days. Among the plural mice counted, mice with 50 or more average scratching movements per day were selected for use.
The behavior of the mice was filmed under unattended environment with a video camera to count the scratching motion with hind legs for one hour. […] This series of scratching motions was counted as one scratching movement, and all such scratching movements were counted irrespective of scratched sites. The measurement was done on the starting day of administration, and one day, 3, 6, 10, 13, 17 and 20 days after the start of administration. […]

[4] = system: IgE-dependent allergic dermatitis; details: mouse, in vivo
Procedure: Using a triphase dermatitis model that can be induced by antigen in mouse passively sensitizationed with IgE, the actions of CB2 inverse agonist and CB2 agonist were examined.
*Animal: 8 to 10 weeks-old Female BALB/c mouse (Japan SLC Inc.) was used.
Preparation of solvent: MC was dissolved in distilled water to prepare an aqueous 0.5% MC solution.
Anti-DNP IgE (antibody against DNP; Yamasa Corp.) was prepared to 15 μg/mL with physiological saline. 0.2 mL of the resulting solution was given through the caudal vein to the mouse.
Antigen preparation: 0.15% (w/v) of DNFB (2,4-dinitrofluorobenzene) was prepared in a mixed solution of acetone and olive oil (3:1, v/v) on needed basis.
Antigen application: 25 μl of the antigen solution was applied on each side of both of the ears 24 hours after the administration of the anti-DNP IgE.
From the next day of the antigen application to day 8 after the antigen application, 10 mL/kg test compound was orally administered once a day 9 times in total. On the day of antigen application, the test compound was administered one hour before the antigen application and the test compound was administered one hour before the measurement of the thickness of the ear on day 8 after the antigen application.
Before and 8 days after the antigen application, the thickness of the ear was measured with a dial thickness gauge (Mitutoyo Corp.). The difference between the value measured before the antigen application and at each time point was used as an index of swelling.
After the measurement of ear swelling, spleen and thymus were harvested to weigh their wet weights.

CCCCCOc1c(OC)ccc2cc(C(=O)NCc3ccc4c(c3)OCO4)c(=O)[nH]c12 [Compound A, N-(benzo[1,3]dioxol-5-ylmethyl)-7-methoxy-2-oxo-8-pentyloxy-1,2-dihydroquinoline-3-carboxamide]
spleen wet weight ([1]; 24 hours after the fifth antigen application, oral dosing): No decrease of spleen weight
ear swelling (increase of the thickness of the ear) ([1]; BALB/c mouse, oral once a day from day after third antigen application, 24 hours after fourth and fifth antigen application): significantly suppressed ear swelling
airway hypersensitivity (PC100ACh) (antigen-induced asthma; 22 to 26 hours after antigen challenge): suppressed
immediate type asthma response (sRaw immediately after antigen challenge) (antigen-induced asthma): suppressed
late asthmatic response (sRaw over 4 to 8 hours after antigen challenge) (antigen-induced asthma): suppressed
ear swelling induced by the application of 10% 2-AG-E (AUC day 0 to day 8) ([2]; oral 0.01, 0.1, 1, 10 mg/kg one hour before 2-AG-E, dose-dependent): suppressed ear swelling
ear swelling induced by 10% 2-AG-E, significance ([2]; oral 1 or 10 mg/kg): significant effect
number of scratching movements [3]: suppressed the number of scratching movements
ear swelling, very late phase [4]: significantly suppressed ear swelling
